Reference: patent publication US20070275025A1, “Combustible Mosquito Coil or Stick” (RECKITT BENCKISER (AUSTRALIA) PTY LIMITED, priority 2003, published 2007)
Read-outs that look alike come from different tables or passages of the source.

Columns and labels:
Aedes aegypti = assay: Burning coil trial in ventilated 20 cubic metre test chamber with human subject: landing/bite inhibition, knockdown, 24 hour mortality; type: in vivo; details: for % KD (15 mins) / 24 hour % mortality (15 mins exposure): 15 minutes exposure; for 24 hour % mortality (15 mins exposure): dead after 24 hours; for % bite inhibition / % landing inhibition: assessed 10 to 15 minutes exposure
Method: A combustible coil according to the present invention containing bifenthrin was compared with coils containing other pyrethroid active ingredients (d-allethrin, d-phenothrin, imiprothrin, permethrin, cypermethrin, bioresmethrin, deltamethrin) as indicated in Table 2. All coils contained active ingredients in an amount that rendered them similar in cost to the current leading d-allethrin coils. The range of actives covered both knockdown and residual pyrethroids. The trial was carried out against the Dengue mosquito (Aedes aegypti). The methodology employed is as follows:
The study was conducted in a ventilated test chamber (20 cubic metres) at a temperature of between 27° C. and 28.7° C. The relative humidity was ambient and ranged from 51% to 58%.
Mixed sex adult 6 to 10 day old Dengue mosquitoes (Aedes aegypti) were used in this study. There were 50 female mosquitoes released per replicate and a variable number of male mosquitoes. The mosquitoes were collected and immobilised. Male and female mosquitoes were added to a container until 50 female mosquitoes were obtained. Because only female mosquitoes bite human subjects, the number of males present in each trial was irrelevant. The mosquitoes were allowed to recover for at least one hour before being used for testing.
A positive air flow of 0.4 metres/second was generated into the chamber and air was passively vented from the chamber.
Coil treatments were placed on the floor in the test chamber, and were allowed to burn for 5 minutes before all mosquitoes were brought into the chamber and released. The coils continued to operate during the assessments and were stopped at the completion of the test period.
Starting from 10 minutes after the mosquitoes were released, an assessment was made by one human subject of the mosquito landings and bites over a 5 minute period. Whilst seated in the chamber, the subject recorded the total number of females that initiated a bite on the subject's legs, as well as the number of females that landed without initiating biting. Mosquitoes were permitted to probe the subject but not permitted to bite the subject, and were chased away prior to this occurring.
Immediately after the 5 minute assessment period, the number of knocked down mosquitoes was recorded. All the mosquitoes were collected and removed from the chamber. After 24 hours, the number of dead mosquitoes was recorded. The same human subject was used for all assessments.
The results shown in the Table 2 are the means of four trials.
Percentage landing inhibition refers to the number of mosquitoes which landed on the subject in the absence of any treatment (untreated control), minus the number of mosquitoes which landed on the subject in the presence of a coil treatment, divided by the number of mosquitoes which landed on the subject in the absence of any treatment, expressed as a percentage. Landing inhibition was assessed from 10 to 15 minutes exposure of the Aedes aegypti mosquitoes to each burning coil treatment.
Percentage bite inhibition refers to the number of mosquitoes which probed or attempted to bite the subject in the absence of any treatment (untreated control), minus the number of mosquitoes which attempted to bite the subject in the presence of a coil treatment, divided by the number of mosquitoes which attempted to bite the subject in the absence of any treatment, expressed as a percentage. It will be appreciated that, as mosquitoes must first land before attempting to bite, of necessity, percentage bite inhibition will always be lower than or equal to percentage landing inhibition. Bite inhibition was assessed from 10 to 15 minutes exposure of the Aedes aegypti mosquitoes to each burning coil treatment.
Knockdown refers to mosquitoes present on the floor of the chamber after the 15 minute trial, which were either dead, moribund, or incapacitated (i.e. unable to fly off the floor of the chamber). […]

[1] = cited from earlier work
Culex quinquefasciatus = assay: Burning coil trial with mosquitoes confined in a small cage in the chamber, subject's arm inserted: landing/bite inhibition, knockdown, 24 hour mortality; type: in vivo; details: caged Culex quinquefasciatus; for % KD (15 mins) / % bite inhibition / % landing inhibition: 15 minutes exposure
Method: The trial detailed in Example 2 was repeated against the much more difficult to kill Culex quinquefasciatus mosquitoes. The methodology used was similar to that employed for Aedes aegypti described above, with the following variations.
One hundred female and a variable number of male Cx. quinquefasciatus were confined in a small cage which was placed in the chamber 5 minutes after the coil treatment had been ignited. For this species of mosquito, the subject's arm was inserted into the cage for determinations of landing and biting rates. The reasons for these changes in methodology compared to those used for Ae. aegypti was because Cx. quinquefasciatus are much weaker biters. This meant that satisfactory biting rates could only be achieved by confining them to a small volume.
Percentage landing inhibition, percentage bite inhibition, percentage knockdown and percentage mortality are as defined above. […] As Cx. quinquefasciatus is a more robust mosquito species the lower level of mortality after 15 minutes exposure when compared with the Ae. aegypti mosquitoes was expected.

[2] = Comparison of physical properties of pyrethroids (The Pesticide Manual); type: physicochemical; details: ratio of the cited vapour pressures
Excerpt: The present inventors compared some physical properties of bifenthrin with those of other residual pyrethroids.

[3] = burning coil with 0.228% d-phenothrin
[4] = burning coil with 0.02% bifenthrin
[5] = burning coil with 0.05% bifenthrin
[6] = burning coil with 0.10% bifenthrin
[7] = burning coil with 0.705% permethrin
[8] = burning coil with 0.25% d-allethrin
[9] = burning coil with 0.056% bioresmethrin
[10] = burning coil with 0.035% imiprothrin
[11] = burning coil with 0.07% deltamethrin
[12] = burning coil with 0.3% cypermethrin

Compound: CC(C)=CC1C(C(=O)OCc2cccc(Oc3ccccc3)c2)C1(C)C (stereo not drawn) [d-Phenothrin, d-phenothrin]
- % KD (15 mins) (Aedes aegypti; [3]): 39%
- 24 hour % mortality (15 mins exposure) (Aedes aegypti; [3]): 24%
- % bite inhibition (Aedes aegypti; [3]): 100%
- % landing inhibition (Aedes aegypti; [3]): 98%
- Vapour Pressure ([1]; 21.4° C.): 0.019 mPa

Compound: Cc1c(COC(=O)[C@H]2[C@@H](/C=C(\Cl)C(F)(F)F)C2(C)C)cccc1-c1ccccc1 (racemic) [Bifenthrin, 2-methylbiphenyl-3-ylmethyl (Z)-(1RS,3RS)-3-(2-chloro-3,3,3-trifluoroprop-1-enyl)-2,2-dimethylcyclopropanecarboxylate]
- % KD (15 mins) (Aedes aegypti; [4]): 15%
- 24 hour % mortality (15 mins exposure) (Aedes aegypti; [4]): 78%
- % bite inhibition (Aedes aegypti; [4]): 95%
- % landing inhibition (Aedes aegypti; [4]): 80%
- % KD (15 mins) (Aedes aegypti; [5]): 31%
- 24 hour % mortality (15 mins exposure) (Aedes aegypti; [5]): 94%
- % bite inhibition (Aedes aegypti; [5]): 99%
- % landing inhibition (Aedes aegypti; [5]): 87%
- % KD (15 mins) (Aedes aegypti; [6]): 30%
- 24 hour % mortality (15 mins exposure) (Aedes aegypti; [6]): 96%
- % bite inhibition (Aedes aegypti; [6]): 100%
- % landing inhibition (Aedes aegypti; [6]): 92%
- 24 hour % mortality (15 mins exposure) (Culex quinquefasciatus; [4]): 9%
- % KD (15 mins) (Culex quinquefasciatus; [4]): 1%
- % bite inhibition (Culex quinquefasciatus; [4]): 96%
- % landing inhibition (Culex quinquefasciatus; [4]): 86%
- 24 hour % mortality (15 mins exposure) (Culex quinquefasciatus; [5]): 27%
- % KD (15 mins) (Culex quinquefasciatus; [5]): 3%
- % bite inhibition (Culex quinquefasciatus; [5]): 95%
- % landing inhibition (Culex quinquefasciatus; [5]): 85%
- 24 hour % mortality (15 mins exposure) (Culex quinquefasciatus; [6]): 39%
- % KD (15 mins) (Culex quinquefasciatus; [6]): 4%
- % bite inhibition (Culex quinquefasciatus; [6]): 99%
- % landing inhibition (Culex quinquefasciatus; [6]): 86%
- Vapour Pressure ([1]; 25° C.): 0.024 mPa

Compound: CC1(C)C(C=C(Cl)Cl)C1C(=O)OCc1cccc(Oc2ccccc2)c1 (stereo not drawn) [Permethrin, permethrin]
- % KD (15 mins) (Aedes aegypti; [7]): 35%
- 24 hour % mortality (15 mins exposure) (Aedes aegypti; [7]): 55%
- % bite inhibition (Aedes aegypti; [7]): 85%
- % landing inhibition (Aedes aegypti; [7]): 8%
- Vapour Pressure ([1]; 20° C.): 0.0025 mPa

Compound: C=CCC1=C(C)C(OC(=O)C2C(C=C(C)C)C2(C)C)CC1=O (stereo not drawn) [d-Allethrin, d-allethrin]
- % KD (15 mins) (Aedes aegypti; [8]): 35%
- 24 hour % mortality (15 mins exposure) (Aedes aegypti; [8]): 7%
- 24 hour % mortality (15 mins exposure) (Aedes aegypti; burning coil with 0.25% d-allethrin, listed as d-allethrin): no different from the untreated control
- % bite inhibition (Aedes aegypti; [8]): 100%
- % landing inhibition (Aedes aegypti; [8]): 98%
- 24 hour % mortality (15 mins exposure) (Culex quinquefasciatus; [8]): 2%
- % KD (15 mins) (Culex quinquefasciatus; [8]): 7%
- % bite inhibition (Culex quinquefasciatus; [8]): 94%
- % landing inhibition (Culex quinquefasciatus; [8]): 87%
- Vapour Pressure ([1]; 21° C.): 0.16 mPa

Compound: CC(C)=C[C@@H]1[C@@H](C(=O)OCc2coc(Cc3ccccc3)c2)C1(C)C [Bioresmethrin, bioresmethrin]
- vapour pressure relative to bifenthrin [2]: 775 times
- % KD (15 mins) (Aedes aegypti; [9]): 41%
- 24 hour % mortality (15 mins exposure) (Aedes aegypti; [9]): 23%
- % bite inhibition (Aedes aegypti; [9]): 99%
- % landing inhibition (Aedes aegypti; [9]): 96%
- Vapour Pressure ([1]; 25° C.): 18.6 mPa

Compound: C#CCN1CC(=O)N(COC(=O)[C@@H]2C(C=C(C)C)C2(C)C)C1=O (mixture of isomers) [Imiprothrin, imiprothrin]
- % KD (15 mins) (Aedes aegypti; [10]): 1%
- 24 hour % mortality (15 mins exposure) (Aedes aegypti; [10]): 7%
- % bite inhibition (Aedes aegypti; [10]): 34%
- % landing inhibition (Aedes aegypti; [10]): 34%
- Vapour Pressure ([1]; 25° C.): 0.0018 mPa

Compound: CC1(C)[C@H](C(=O)O[C@H](C#N)c2cccc(Oc3ccccc3)c2)[C@@H]1C=C(Br)Br [Deltamethrin, deltamethrin]
- % KD (15 mins) (Aedes aegypti; [11]): 0%
- 24 hour % mortality (15 mins exposure) (Aedes aegypti; [11]): 12%
- % bite inhibition (Aedes aegypti; [11]): 57%
- % landing inhibition (Aedes aegypti; [11]): 57%
- Vapour Pressure ([1]; 25° C.): 0.0000124 mPa

Compound: CC1(C)C(C=C(Cl)Cl)C1C(=O)OC(C#N)c1cccc(Oc2ccccc2)c1 (stereo not drawn) [Cypermethrin, cypermethrin]
- % KD (15 mins) (Aedes aegypti; [12]): 10%
- 24 hour % mortality (15 mins exposure) (Aedes aegypti; [12]): 56%
- % bite inhibition (Aedes aegypti; [12]): 73%
- % landing inhibition (Aedes aegypti; [12]): 70%
- Vapour Pressure ([1]; 20° C.): 0.0002 mPa
